Publication PMC12549899 (Nature Communications, 2025)
pIC50: −log10 of the molar value. Several values for one entry are separate records, joined by “and”; a condition that tells them apart may be missing. Equal entries are not always repeated. Where two headings read alike, the source gives them in different places.

Biological target: T1, DrOTOP1 G130W/A388W (Danio rerio, UniProt Q7ZWK8, A388W/G130W)
T1 construct: A previously generated codon-optimized full-length DrOTOP1[8]; (UniProt: Q7ZWK8) construct; expressed in transfected cells; host or cells: HEK-293 (CRL-1573, ATCC)
T1 sequence (Q7ZWK8 1-586 G130W/A388W): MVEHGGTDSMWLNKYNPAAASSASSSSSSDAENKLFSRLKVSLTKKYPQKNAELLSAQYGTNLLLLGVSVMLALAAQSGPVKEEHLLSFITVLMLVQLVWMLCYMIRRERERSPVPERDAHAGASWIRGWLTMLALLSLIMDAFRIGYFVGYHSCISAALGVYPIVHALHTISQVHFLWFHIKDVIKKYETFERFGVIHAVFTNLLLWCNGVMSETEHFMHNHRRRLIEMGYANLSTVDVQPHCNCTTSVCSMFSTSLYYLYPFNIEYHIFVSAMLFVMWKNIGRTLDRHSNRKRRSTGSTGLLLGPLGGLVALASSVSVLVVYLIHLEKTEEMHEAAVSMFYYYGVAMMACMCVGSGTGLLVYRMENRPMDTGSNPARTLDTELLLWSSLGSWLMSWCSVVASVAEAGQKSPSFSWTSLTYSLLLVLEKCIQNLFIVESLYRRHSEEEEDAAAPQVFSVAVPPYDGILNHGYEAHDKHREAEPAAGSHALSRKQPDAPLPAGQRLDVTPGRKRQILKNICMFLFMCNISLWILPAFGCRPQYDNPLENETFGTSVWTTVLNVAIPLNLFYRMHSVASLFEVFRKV
Assay: Whole-cell patch-clamp, inhibition of acid-evoked currents, DrOTOP1 G130W/A388W
Format: cell-based, zebrafish (Danio rerio)
Method: Given our limited success in identifying mutations of the central site that disrupt antagonism by C2.2, we tested whether mutations of the central site in a background of G130W (the most impactful outer site mutation) might unmask contributions of this site. Thus, we generated and tested double mutants of G130W with E384A, A274W, and A388W. […] We also measured the dose-dependence of inhibition by C2.2 for both G130W/A388W and G130W/E384A (Fig. 5I, J). […] G130W was tested in parallel to confirm that 100 and 300 μM C2.2 produced dose-dependent inhibition.
HEK-293 cells (CRL-1573, ATCC) were cultured in DMEM (Thermofisher 11995073) containing 10% fetal bovine serum (Life Technology 16000044) and Penicillin-Streptomycin (100 I.U./mL) and (100 µg/mL), respectively. Cells were transfected with WT DrOTOP1 or mutant DrOTOP1 channels in 35 mm petri dishes, with ~ 500 ng DNA and 2 μL TransIT-LT1 transfection reagent (Mirus Bio Corporation, Cat # MIR2300) following the manufacturer’s protocol. All constructs were subcloned into a pcDNA3.1 vector that adds an N-terminal fusion tag consisting of an octahistidine tag followed by eGFP, a Gly-Thr-Gly-Thr linker and a 3C protease cleavage site ([…]) followed by WT DrOTOP1, WT mOTOP1, WT hOTOP1, or mutated DrOTOP1. Point mutations were generated via In-Fusion Cloning (Takara) using single-stranded DNA primers generated through IDT and sequence confirmed by Sanger sequencing (GeneWiz).
Whole-cell patch-clamp recording was performed as previously described[6],[22],[25]. Recordings were made with an Axopatch 200B amplifier, digitized with a Digidata 1322a 16-bit data acquisition system, acquired with pClamp 8.2 and analyzed with Clampfit 10 (Molecular Devices). Recordings were sampled at 5 kHz and filtered at 1 kHz. Patch Pipettes with resistance of […] were fabricated from borosilicate glass, and only recordings with a giga-Ohm seal were used in analysis. Membrane potential was held at −80 mV for the duration of recordings. At the beginning of recordings and between, cells were washed with Tyrode’s solution (see below). Once a giga-Ohm seal was reached, cells were lifted and placed in front of microcapillary tubes controlled by a Fast-Step perfusion system (Warner Instruments) so that extracellular solutions could be rapidly exchanged during each experiment.
Standard Tyrode’s solution consisted of 145 mM NaCl, 5 mM KCl, MgCl2, 2 mM CaCl2, 20 mM D-Glucose, and 10 mM HEPES (for pH 7.4). All other extracellular patch-clamp solutions contained 160 mM NMDG-Cl, 2 mM CaCl2, and the following buffers: 10 mM HEPES (for pH 7.4), 10 mM MES (for pH 6.5-5.5), 10 mM CHES for pH 10, and 10 mM HomoPIPES for (pH 5.0). pH adjusted with HCl. When adding compounds to extracellular solutions, the concentration of DMSO in solution was never higher than 0.3%. The pipette contained intracellular solution made up of 120 mM Cs-aspartate, 15 mM CsCl, 2 mM Mg-ATP, 5 mM EGTA, 2.4 mM CaCl2 (100 nM free Ca^2+), and 10 mM HEPES with a pH of 7.3. All extracellular solution osmolarity was adjusted to 300 mOsm and intracellular osmolarity was adjusted to 290 mOsm.
All data are presented as mean ± SEM unless otherwise noted, and each data point represents an independent replicant. Inhibition of compounds was quantified as ((I2peak-I1)/(I2peak))*100, where I1 is the current immediately before wash-off and I2peak is the maximum recovered current (Supplementary Fig. 2). Hill coefficients were determined by the following equation: Y = Bmax*X^h/(Kd^h + X^h). Absolute IC50 was determined by the following equation: Fifty = (Top + Baseline)/2 Y = Bottom + (Top-Bottom)/(1 + ((Top-Bottom)/(Fifty-Bottom) − 1)*(AbsoluteIC50/X)^HillSlope). pH50 curves (Fig. 6G inset) were determined using the following equation: Y = Bottom + (Top-Bottom)/(1 + (EC/X)^HillSlope) where EC = EC50 control. Graphs with electrophysiological data were made in Graphpad Prism 10 (Graphpad Software Inc). […]

[1] = 100 µM, DrOTOP1 G130W/A388W, single cells

C=C(C)COc1ccccc1NC(=O)c1nc[nH]c1C [C2.2]
Inhibition of currents (10 µM, DrOTOP1 G130W/A388W, single cells or mean, mean): 1.543% | Inhibition of currents (10 µM, DrOTOP1 G130W/A388W, single cells or mean, single cells): 2.216% and 2.459% and 1.638% and 1.737% and 0.722% and 0.4878% | HillSlope (DrOTOP1 G130W/A388W): 1.10 | Reduction in sensitivity (IC50) compared with single mutant G130W (DrOTOP1 G130W/A388W): 3 fold and ~ 3 fold | pIC50 (DrOTOP1 G130W/A388W, pH 5.5, read-out: IC50): 3.40 | HillSlope (G130W/A388W, best-fit value): 1.1 | LogAbsoluteIC50 (G130W/A388W, best-fit value): 2.599 | pIC50 (G130W/A388W, best-fit value, Top = 100, Bottom = 0, read-out: AbsoluteIC50): 3.40

O=C(/C(=N\O)c1ccccc1)c1ccccc1 [C11, benzil monoxime]
Inhibition of currents [1]: 63.5701% and 65.9051% and 61.9048% and 72.4545% and 68.6192% | inhibition at 100 µM [1]: 63.1%
